# Source: patent US20060147456A1, “Induction of apoptosis in toll-like receptor expressing tumor cells” (priority 2004, published 2006)
# Residues, ends and D or L forms follow the SMILES beside them. *: point of attachment. Cbz = O=C(OCc1ccccc1)*; CH2F = FC*
# Columns and labels:
# Type in all cases: cell-based, human
# [1] = system: Cama-1, SW527, BT483 and MCF-7; test: Cell recovery by crystal violet staining, four breast tumor cell lines together; details: 72 h, 5 μg/ml PGN; for effect on cell recovery of any of the four breast cancer cell lines: 10 μg/ml LPS, 50 ng/ml flagellin, 6 μg/ml R848, 10 μg/ml CpG ODNs; for cell recovery, percent of control, on average: 50 μg/ml Poly IC or 10 μg/ml LPS, average of the four cell lines
# Description: (§1) Cell recovery after treatment with TLR ligands was measured by crystal violet staining (Sigma-Aldrich). Cells were plated at 10^4 cells/well in 96 well plates. After 72 hours of culture either with or without TLR ligand, the cells were washed with PBS, fixed in 6% formaldehyde (Sigma-Aldrich) for 20 minutes, washed twice, and then stained with 0.1% crystal violet for 10 minutes. After washes and incubation in 1% SDS for 1 hour, the absorbance was read at 605 nm on a Vmax plate reader (Molecular Devices, Sunnyvale, Calif.). Annexin V staining was performed with an annexin-FITC apoptosis detection kit (BD Pharmingen, San Diego, Calif.) according to the manufacturer's instructions. Sub-diploid cells were detected by staining with 3 μg/mL propidium iodide (PI) (Molecular probes, Eugene, Oreg.), after overnight permeabilization in 70% ethanol. Fluorescence was analyzed by flow cytometry on a FACScalibur (Becton Dickinson, Mountain View, Calif.) equipped with a doublet-discrimination module and using Celiquest Pro software (Becton Dickinson).
# Four human breast tumor cell lines, Cama-1, SW527, BT483 and MCF-7, were analyzed for cell death in response to Poly IC. Cells were cultured for 72 hours with 5 μg/ml PGN, 50 μg/ml Poly IC or 10 μg/ml LPS. Control cells were cultured with PBS. Cytotoxicity was assessed by crystal violet staining and expressed as a percent of control.
# Furthermore, additional TLR ligands were tested to determine any possible effects on cellular toxicity. The ligands tested were PGN, LPS, Flagellin, R848 and CpG. Cells were cultured for 72 hours with 5 μg/ml PGN, 10 μg/ml LPS, 50 ng/ml flagellin, 6 μg/ml R848, 10 μg/ml CpG ODNs, or with PBS as control. Cell recovery was assessed by crystal violet staining and expressed as a percent of control.
# TLR3 mRNA = TLR3 mRNA expression by RT-PCR in Cama-1 cells; details: 48 h, 5 μg/ml, agent alone
# Description: Cama-1 cells were analyzed for TLR3 mRNA expression in response to Poly IC. Cama-1 cells were cultured in complete medium (DMEM F12 containing […] glucose and complemented with 2 mM L-glutamine, 10% fetal calf serum, 160 μg/mL gentalline, 2.5 mg/mL sodium bicarbonate) for 48 hours either alone or with LPS (5 μg/ml) and/or with Poly IC (5 μg/ml). The mRNA from each group of cells was extracted. The mRNA was then reverse-transcribed and PCR amplified for 35 cycles (as above in Example 1) with hTLR3 specific primers: TLR3F: […] (SEQ ID NO: 5) and TLR3R: […] (SEQ ID NO: 6). TLR3 mRNA could not be amplified from resting Cama-1 cells.
# Amplified DNA from RT-PCR using hTLR3 specific primers was run on a gel.
# Cama-1 cells = test: Apoptosis by annexin V staining and flow cytometry; details: Cama-1; for percentage of apoptotic cells: 5 μg/ml Poly IC or 25 ng/ml TNF-α; for effect on Poly IC induced apoptosis: 5 μg/ml Poly IC
# Description: as §1
# Cama-1 cells were plated in 6 well plates at 3×10^5 cells per well. After overnight adherence, siRNA transfections were performed for 5 hours in OptiMEM medium (Life technologies) containing 3 μg/mL lipofectamine 2000 (Invivogen) and 100 nM siRNA. Cells were then washed and cultured for 72 hours in complete medium before treatment with Poly IC and apoptosis analysis. siRNA duplexes specific for TLR3, PKR, IRAK-4, TRAF6 and p65 were purchased from Dharmacon (Lafayette, Colo.) as SMART-Pools. TRIF siRNA was purchased from the same supplier as single oligoduplexes (5′-GCUCUUGUAUCUGMGCAC-3′) (SEQ ID NO: 23). TLR3 and TRIF expression was assessed by PCR (35 cycles: 1 min 94° C., 1 min 55° C., 2 min 72° C.) with Taq PCR ReadyMix (Sigma-Aldrich) using following primers: […]
# To further investigate the effect of Poly IC treatment on breast tumor cell lines, cell death was analyzed in Cama-1 cells by annexin V staining. Cells were cultured for 24 hours either with or without 5 μg/ml of Poly IC. Apoptosis was measured by annexin V staining and flow cytometry.
# We also tried to determine the kinetics of Poly IC induced apoptosis. Cama-1 cells were cultured either with or without 5 μg/ml or 50 ng/ml of Poly IC. The percentage of apoptotic (annexin positive) cells in the culture were measured during the following 30 hours. […] Specifically, Poly IC triggered apoptosis in Cama-1 cells beginning 9 hours after Poly IC addition and reaching up to 80% apoptotic cells after 30 hours of treatment.
# Poly AU was analyzed for its effects on apoptosis. Cama-1 cells were cultured for 48 hours either with PBS or with increasing concentrations of Poly AU ranging from 5 ng/ml to 50 μg/ml. Apoptosis was analyzed by measuring the percentage of annexin V positive cells.
# In order to determine the pathway of Poly IC induced Cama-1 cell toxicity, RNA interference was used to efficiently downregulate expression of TRIF and PKR. Cama-1 cells were plated in 6 well plates at 3×10^5 cells per well. After overnight adherence, siRNA transfections were performed for 5 hours in OptiMEM medium (Life technologies) containing 3 μg/mL lipofectamine 2000 (Invivogen) and 100 nM siRNA. Cells were transfected with either MOCK (water), control scrambled duplex (scr) siRNA, TRIF siRNA or PKR siRNA.
# 72 hours after siRNA transfection, Cama-1 cells were cultured for another 24 hours either with or without 5 μg/ml Poly IC. Apoptosis was measured by annexin V staining and expressed as a percentage of apoptotic cells in culture. On average, 10% of control cells (MOCK and scr) that were untreated underwent apoptosis. In contrast, about 75% of control cells (MOCK and scr) that were treated with Poly IC underwent apoptosis.
# To further investigate TLR3 mediated cytotoxicity, the involvement of the signaling molecules IRAK4 and TRAF6, both downstream mediators of TLR signaling, were assessed. Cama-1 cells were plated in 6 well plates at 3×10^5 cells per well. […]
# IL-8 = IL-8 secretion by breast cancer cell lines; details: certain cell lines
compound,measurement,setting,value
lipopolysaccharide [LPS],effect on cell recovery of any of the four breast cancer cell lines,[1],None of those ligands significantly reduced cell recovery
same,"cell recovery, percent of control, on average",[1],95%
same,TLR3 mRNA expression,TLR3 mRNA,did not affect TLR3 mRNA expression
TNF-α,percentage of apoptotic cells,"Cama-1 cells; 25 μM z-VAD-fmk pre-incubation 1 h, 24 h",10%
same,percentage of apoptotic cells,"Cama-1 cells; DMSO pre-incubation 1 h, 24 h",40%
same,percentage of apoptotic cells,Cama-1 cells; absence of antibody (Example 12),40%
same,percentage of apoptotic cells,"Cama-1 cells; pre-incubated with 10 μg/ml CHX, untreated 15%",70%
same,percentage of apoptotic cells,Cama-1 cells; pre-incubated with 20 μg/ml neutralizing anti TNF-α mAb,10%
polyadenylic-polyuridylic acid [Poly AU],apoptosis (annexin V positive cells),"Cama-1 cells; 48 h, 5 ng/ml to 50 μg/ml Poly AU",triggers apoptosis
Flagellin,effect on cell recovery of any of the four breast cancer cell lines,[1],None of those ligands significantly reduced cell recovery
COC(=O)C[C@H](NC(=O)[C@H](C)NC(=O)[C@@H](NC(=O)OCc1ccccc1)C(C)C)C(=O)CF [z-VAD-fmk] (Cbz-Val-Ala-Asp(OMe)-CH2F),effect on Poly IC induced apoptosis,Cama-1 cells; annexin V,greatly reduced Poly IC induced apoptosis
Peptidoglycan [PGN],effect on cell recovery of any of the four breast cancer cell lines,[1],None of those ligands significantly reduced cell recovery
same,"cell recovery, percent of control, on average",[1],95%
same,secretion of IL-8,IL-8,induced secretion of IL-8 in certain cell lines
CCOCc1nc2c(N)nc3ccccc3c2n1CC(C)(C)O [R848],effect on cell recovery of any of the four breast cancer cell lines,[1],None of those ligands significantly reduced cell recovery
"C[C@@H]1C[C@@H]([C@H](O)CC2CC(=O)NC(=O)C2)C(=O)[C@@H](C)C1 [CHX, Cycloheximide]",effect on TNF-α induced apoptosis,"Cama-1 cells; 25 ng/ml TNF-α, annexin V",significantly sensitized Cama-1 cells to TNF-α induced apoptosis
same,effect on Poly IC induced apoptosis,Cama-1 cells; annexin V,partially protected the cells against Poly IC induced apoptosis
